± gives the expanded uncertainty stated by the source.
Columns and labels:
[1] = wn = mass fraction of the nth substance listed; conditions: 298.15 K, 100 kPa, Liquid, Vibrating tube method
[2] = refractive index (Na D-line) (dimensionless); wn = mass fraction of the nth substance listed; conditions: 298.15 K, 100 kPa, Liquid, Standard Abbe refractometry

SMILES | mass density ([1]; w1 = 0.2259) | refractive index ([2]; w1 = 0.2259) | mass density ([1]; w1 = 0.0308) | refractive index ([2]; w1 = 0.0308)
O=B[O-].[Na+] [sodium metaborate] + O | 1267.8 ± 6.2 kg/m3 | 1.3872 ± 0.0033 | – | –
O=BOB([O-])OB([O-])OB=O.[Na+].[Na+] [sodium tetraborate] + O | – | – | 1025.65 ± 0.63 kg/m3 | 1.339 ± 0.003

— the NIST ThermoML archive (doi:10.1021/acs.jced.9b00780)
